In test [1] the test system is HIV-1 NL4-3 virus produced in MT4 cells. As to the kind of experiment: infectivity of virus particles by the CPRG method in HeLa P4 cells. As to conditions: viruses recovered after MT4 cells were exposed to 10 µM drugs. It counts as cell-based. The method, then: We used the CPRG method developed in HeLa P4 cells grown in 96-well plates to measure the infectivity of virus particles, as low levels of virus were recovered after exposure of infected MT4 cells to different drug concentrations. In this assay, expression of the LacZ gene is under the control of the HIV-1 LTR, and its level of trans-activation correlates with the level of expression of HIV-1 Tat. HeLa P4 cells were incubated with normalized amounts of virus as measured by the P24 assay, and the expression of β-galactosidase was determined by the CPRG assay (Fig. 5).
Fig 5 Infectivity of newly formed HIV-1 particles produced in the presence of drugs. MT4 cells were infected with the NL4-3 virus. […] The infectivity of HIV-1 viruses was determined by the CPRG method. […]
Replication of the NL4-3 virus was determined either by the ELISA technique or in HeLa-P4 cells by the CPRG method as described previously ([29]). These are HeLa CD4 LTR-lacZ cells in which the expression of lacZ is induced by the HIV transactivator Tat, allowing precise quantification of the infectivity of HIV-1. The viral titer was determined by quantifying β-galactosidase activity in HeLa-P4 lysates in a colorimetric assay based on the cleavage of chlorophenol red-β-D-galactopyranoside (CPRG) by β-galactosidase. The cytotoxicity is evaluated by the MTT assay.

Test [2] deals with T1, mLysRS:IN interaction (human mLysRS, HIV-1 IN) (UniProt P12497+Q15046).
T1 construct: made in house
T1 sequence (Q15046 other isoform, or with tags, fused parts or gaps, other chains not shown): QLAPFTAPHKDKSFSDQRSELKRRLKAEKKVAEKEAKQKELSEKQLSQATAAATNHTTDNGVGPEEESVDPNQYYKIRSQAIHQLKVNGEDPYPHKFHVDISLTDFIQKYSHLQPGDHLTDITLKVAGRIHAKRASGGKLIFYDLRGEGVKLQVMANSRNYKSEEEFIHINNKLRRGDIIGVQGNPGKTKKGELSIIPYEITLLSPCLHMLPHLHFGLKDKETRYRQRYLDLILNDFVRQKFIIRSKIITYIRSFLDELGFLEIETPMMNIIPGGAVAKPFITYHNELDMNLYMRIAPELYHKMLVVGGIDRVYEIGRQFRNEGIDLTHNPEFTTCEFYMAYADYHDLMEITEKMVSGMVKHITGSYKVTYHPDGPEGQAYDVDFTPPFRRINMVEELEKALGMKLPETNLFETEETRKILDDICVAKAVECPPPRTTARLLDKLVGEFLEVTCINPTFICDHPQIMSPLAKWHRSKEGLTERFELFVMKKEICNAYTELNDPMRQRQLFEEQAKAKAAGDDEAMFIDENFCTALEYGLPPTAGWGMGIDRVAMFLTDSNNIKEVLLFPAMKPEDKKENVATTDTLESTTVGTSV
The experiment in a line: HTRF assay of mLysRS:IN interaction. Conditions: HTRF; mLysRS 1.5 nM dimer, IN 25 nM dimer; read-out: half-maximal inhibitory concentration (IC50) in the mLysRS:IN assay. Format: binding, human / HIV-1. On the procedure:
Fig 1 Determination of the half-maximal inhibitory concentration (IC50) of the drugs in the mLysRS:IN binding assay. The binding of mLysRS to IN (red) or p38 (blue) was monitored in the HTRF assay in the presence of increasing drug concentrations (9–1,000 µM). The experimental values (symbols) were fitted (curves) to the equation Y = Ymin + {(Ymax − Ymin)/[1 + (X/IC50)^n]}, where n is the Hill coefficient. […] Proteins were isolated as described previously ([4]). Several batches of IN were used throughout this study. […] The molecules are dissolved in DMSO at a final concentration of 10 mM. After a 1 h incubation on ice, antibodies (Cisbio) directed to the His-tag and conjugated with Eu^3+ cryptate (Cisbio #61HISKLB) and the HA-tag conjugated with XL665 (Cisbio #610HAXLB) were added, and incubation was continued for 30 min. After the addition of 50 mM KF, fluorescence of Eu^3+ cryptate and of XL665 was recorded at 620 nm (I620) and 665 nm (I665), respectively, following excitation of Eu^3+ cryptate at 317 nm, in an Infinite M1000 PRO microplate reader (TECAN). The results were expressed as the ratio of I665/I620.
In general terms: Time-resolved FRET reads energy transfer from a long-lived donor to a nearby acceptor.

Structures are written as SMILES.

Consider 1 compound from PMC12607897, “Inhibition of HIV-1 replication by primer RNA packaging inhibitors” (mBio, 2025).

As for `CN1CCCC(n2nc(Cc3ccc(Cl)cc3)c3ccccc3c2=O)CC1` (centres unmarked) [azelastine], the “infectivity of viruses compared with wild-type viruses” value in test [1] was “less than 4%”. Besides, the IC50 in test [2] worked out at 340 ± 50 µM.
